Source: ChEMBL document CHEMBL1201862, “PubChem BioAssay data set” (2004)
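96-well plates; 48 h exposure; 5 concentrations. Endpoints by linear interpolation between flanking doses. Not reached: highest tested concentration assigned. Here, GI50 denotes the concentration required for 50% inhibition of growth.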 Activity calls are given as the source filed them. Rule as the data show it: active = GI50 up to about 1.1 µM and inactive = higher.

Columns and labels:
Assay in all cases: inhibition of tumour cell growth, NCI panel, 48 h
SK-MEL-28 = system: SK-MEL-28
OVCAR-3 = system: OVCAR-3
SK-MEL-2 = system: SK-MEL-2
U-251 = system: U-251
NCI-H460 = system: NCI-H460
MDA-MB-231 = system: MDA-MB-231
TK-10 = system: TK-10
SK-MEL-5 = system: SK-MEL-5
SF-268 = system: SF-268
CAKI-1 = system: CAKI-1
PC-3 = system: PC-3
NCI-H226 = system: NCI-H226
DU-145 = system: DU-145
SW-620 = system: SW-620
MOLT-4 = system: MOLT-4
HL-60 = system: HL-60
UO-31 = system: UO-31
CCRF-CEM = system: CCRF-CEM
KM12 = system: KM12
RPMI-8226 = system: RPMI-8226

Compound | GI50 (SK-MEL-28) | GI50 (OVCAR-3) | GI50 (SK-MEL-2) | GI50 (U-251) | GI50 (NCI-H460) | GI50 (MDA-MB-231) | GI50 (TK-10) | GI50 (SK-MEL-5) | GI50 (SF-268) | GI50 (CAKI-1) | GI50 (PC-3) | GI50 (NCI-H226) | GI50 (DU-145) | GI50 (SW-620) | GI50 (MOLT-4) | GI50 (HL-60) | GI50 (UO-31) | GI50 (CCRF-CEM) | GI50 (KM12) | GI50 (RPMI-8226)
O=C(Nc1ccc2nc(-c3ccccc3)cn2c1)Oc1ccccc1 | > 100 µM (inactive) | 38.6 µM (inactive) | 46.7 µM (inactive) | 52.7 µM (inactive) | 33.1 µM (inactive) | > 100 µM (inactive) | 53.7 µM (inactive) | 59.7 µM (inactive) | > 100 µM (inactive) | 97.9 µM (inactive) | > 100 µM (inactive) | > 100 µM (inactive) | 41.7 µM (inactive) | 48.6 µM (inactive) | 40.6 µM (inactive) | 30.9 µM (inactive) | > 100 µM (inactive) | 39.7 µM (inactive) | 24.9 µM (inactive) | –
CN(C)C(=O)C(F)(F)C(c1ccc(F)cc1)C1C(=O)N(C)C(=O)N(C)C1=O (stereo not drawn) | > 100 µM (inactive) | > 100 µM (inactive) | > 100 µM (inactive) | > 100 µM (inactive) | > 100 µM (inactive) | > 100 µM (inactive) | > 100 µM (inactive) | > 100 µM (inactive) | > 100 µM (inactive) | > 100 µM (inactive) | > 100 µM (inactive) | > 100 µM (inactive) | > 100 µM (inactive) | > 100 µM (inactive) | > 100 µM (inactive) | – | > 100 µM (inactive) | > 100 µM (inactive) | > 100 µM (inactive) | > 100 µM (inactive)
O=C1/C(=C\c2ccc([N+](=O)[O-])cc2)N(S(=O)(=O)c2ccccc2)c2ncccc21 | 20.7 µM (inactive) | 12.2 µM (inactive) | – | 18.2 µM (inactive) | 18.7 µM (inactive) | 16.1 µM (inactive) | 17.5 µM (inactive) | 16.8 µM (inactive) | 23.1 µM (inactive) | 8.18 µM (inactive) | 14 µM (inactive) | 22.9 µM (inactive) | 27.5 µM (inactive) | 14.9 µM (inactive) | 3.24 µM (inactive) | 2.18 µM (inactive) | 19.3 µM (inactive) | 2.98 µM (inactive) | 20.3 µM (inactive) | 5.43 µM (inactive)
CCN(CC)CCNc1ccc2ncn3c4c(OC)cccc4c(=O)c1c23 | 6.47 µM (inactive) | 0.863 µM (active) | – | 4.89 µM (inactive) | 3 µM (inactive) | 7.55 µM (inactive) | 12.2 µM (inactive) | 2.38 µM (inactive) | 3.92 µM (inactive) | 4.89 µM (inactive) | 3.97 µM (inactive) | 5.86 µM (inactive) | 4.5 µM (inactive) | 1.08 µM (active) | 0.912 µM (active) | – | 4.38 µM (inactive) | 1.73 µM (inactive) | 4.26 µM (inactive) | –
O=C(OCc1ccccc1CN1CCOCC1)c1cccc(Br)c1 | 33.1 µM (inactive) | 17.7 µM (inactive) | 22.3 µM (inactive) | 47.6 µM (inactive) | 83.8 µM (inactive) | 33.7 µM (inactive) | – | 17.7 µM (inactive) | 62.8 µM (inactive) | 40.2 µM (inactive) | 37.2 µM (inactive) | 44.8 µM (inactive) | 71 µM (inactive) | 53.6 µM (inactive) | < 0.01 µM (active) | – | 62.2 µM (inactive) | – | – | –
C=CCN1CC2CN=NC2(C#N)C1 (stereo not drawn) | > 100 µM (inactive) | > 100 µM (inactive) | > 100 µM (inactive) | > 100 µM (inactive) | > 100 µM (inactive) | > 100 µM (inactive) | > 100 µM (inactive) | > 100 µM (inactive) | > 100 µM (inactive) | > 100 µM (inactive) | > 100 µM (inactive) | > 100 µM (inactive) | > 100 µM (inactive) | > 100 µM (inactive) | > 100 µM (inactive) | > 100 µM (inactive) | > 100 µM (inactive) | > 100 µM (inactive) | > 100 µM (inactive) | –
C=CCn1c(-c2ccc(-c3cs/c(=N\N=O)n3CC=C)cc2)cs/c1=N\N=O | > 100 µM (inactive) | > 100 µM (inactive) | > 100 µM (inactive) | 61.1 µM (inactive) | > 100 µM (inactive) | 23.4 µM (inactive) | > 100 µM (inactive) | > 100 µM (inactive) | > 100 µM (inactive) | > 100 µM (inactive) | > 100 µM (inactive) | > 100 µM (inactive) | > 100 µM (inactive) | > 100 µM (inactive) | > 100 µM (inactive) | > 100 µM (inactive) | > 100 µM (inactive) | > 100 µM (inactive) | > 100 µM (inactive) | –
NNC(=S)N1CCN(C(=S)NN)CC1 | > 100 µM (inactive) | > 100 µM (inactive) | > 100 µM (inactive) | > 100 µM (inactive) | > 100 µM (inactive) | > 100 µM (inactive) | – | > 100 µM (inactive) | > 100 µM (inactive) | > 100 µM (inactive) | > 100 µM (inactive) | – | > 100 µM (inactive) | > 100 µM (inactive) | > 100 µM (inactive) | 32.4 µM (inactive) | > 100 µM (inactive) | > 100 µM (inactive) | > 100 µM (inactive) | > 100 µM (inactive)
COc1c2c(cc3c1C(=O)c1c(O)cccc1C3=O)CC(O)CC2 (stereo not drawn) | > 100 µM (inactive) | > 100 µM (inactive) | > 100 µM (inactive) | 50.9 µM (inactive) | > 100 µM (inactive) | 21.6 µM (inactive) | 50.5 µM (inactive) | > 100 µM (inactive) | – | > 100 µM (inactive) | 67.9 µM (inactive) | 54.5 µM (inactive) | 57.7 µM (inactive) | > 100 µM (inactive) | > 100 µM (inactive) | > 100 µM (inactive) | 56.9 µM (inactive) | > 100 µM (inactive) | > 100 µM (inactive) | –
CCC(=N\NC(N)=S)/C(C)=N/O | > 100 µM (inactive) | > 100 µM (inactive) | > 100 µM (inactive) | > 100 µM (inactive) | > 100 µM (inactive) | > 100 µM (inactive) | > 100 µM (inactive) | > 100 µM (inactive) | > 100 µM (inactive) | > 100 µM (inactive) | > 100 µM (inactive) | > 100 µM (inactive) | > 100 µM (inactive) | > 100 µM (inactive) | – | – | 62.1 µM (inactive) | – | > 100 µM (inactive) | > 100 µM (inactive)
COC(=O)c1ccc(/C=C2\Oc3ccccc3C2=O)cc1 | > 100 µM (inactive) | > 100 µM (inactive) | – | > 100 µM (inactive) | > 100 µM (inactive) | > 100 µM (inactive) | > 100 µM (inactive) | > 100 µM (inactive) | > 100 µM (inactive) | 41.2 µM (inactive) | > 100 µM (inactive) | > 100 µM (inactive) | > 100 µM (inactive) | > 100 µM (inactive) | > 100 µM (inactive) | 16.4 µM (inactive) | > 100 µM (inactive) | 58.1 µM (inactive) | > 100 µM (inactive) | > 100 µM (inactive)
CCOC(=O)C1CCC/C1=N\NC(=N)N.Cc1cc(O)c(C(C)C)cc1S(=O)(=O)O (stereo not drawn) | > 100 µM (inactive) | > 100 µM (inactive) | > 100 µM (inactive) | > 100 µM (inactive) | > 100 µM (inactive) | > 100 µM (inactive) | > 100 µM (inactive) | > 100 µM (inactive) | > 100 µM (inactive) | – | > 100 µM (inactive) | > 100 µM (inactive) | > 100 µM (inactive) | > 100 µM (inactive) | > 100 µM (inactive) | > 100 µM (inactive) | > 100 µM (inactive) | > 100 µM (inactive) | > 100 µM (inactive) | > 100 µM (inactive)
CCn1c2ccccc2c2cc(Nc3cc(C)[nH]c(=O)n3)ccc21 | > 100 µM (inactive) | > 100 µM (inactive) | > 100 µM (inactive) | > 100 µM (inactive) | > 100 µM (inactive) | > 100 µM (inactive) | > 100 µM (inactive) | – | > 100 µM (inactive) | > 100 µM (inactive) | > 100 µM (inactive) | – | > 100 µM (inactive) | > 100 µM (inactive) | – | 0.255 µM (active) | > 100 µM (inactive) | – | 5.7 µM (inactive) | –
S=C(S)NCNC(=S)S | > 100 µM (inactive) | > 100 µM (inactive) | – | > 100 µM (inactive) | > 100 µM (inactive) | > 100 µM (inactive) | > 100 µM (inactive) | > 100 µM (inactive) | > 100 µM (inactive) | > 100 µM (inactive) | > 100 µM (inactive) | – | > 100 µM (inactive) | > 100 µM (inactive) | > 100 µM (inactive) | > 100 µM (inactive) | > 100 µM (inactive) | > 100 µM (inactive) | > 100 µM (inactive) | > 100 µM (inactive)
Cc1c(N2CCCC2)cc2c(c1NC(=O)c1ccccc1Cl)C(C)(C)CC2(C)C | 17.6 µM (inactive) | 8.3 µM (inactive) | 16.3 µM (inactive) | 14.5 µM (inactive) | 12.3 µM (inactive) | 15.4 µM (inactive) | 11.1 µM (inactive) | 16.8 µM (inactive) | 15.4 µM (inactive) | 13.3 µM (inactive) | 15.5 µM (inactive) | 23.2 µM (inactive) | 15.9 µM (inactive) | 16 µM (inactive) | – | – | 13.2 µM (inactive) | – | 15.3 µM (inactive) | 12.9 µM (inactive)
